Columns and labels:
D-amino-acid oxidase [1] = biological target: T1, D-amino-acid oxidase (Homo sapiens, UniProt P14920); assay: Inhibition of recombinant full length human DAO preincubated with compound for 20 mins measured after 4 hrs by Amplex red and horseradish peroxidase based fluorescence assay
D-amino-acid oxidase [2] = biological target: T1, D-amino-acid oxidase; assay: Inhibition of full length human DAO transfected in CHO-K1 cells incubated for 30 mins by Amplex red and horseradish peroxidase based fluorescence assay; format: cell-based
D-amino-acid oxidase [3] = biological target: D-amino-acid oxidase (Mus musculus, UniProt P18894); assay: Inhibition of full length mouse DAO transfected with CHO-K1 cells incubated for 30 mins by Amplex red and horseradish peroxidase based fluorescence assay; format: cell-based
D-amino-acid oxidase (Mus musculus, UniProt P18894), sequence (P18894 whole entry): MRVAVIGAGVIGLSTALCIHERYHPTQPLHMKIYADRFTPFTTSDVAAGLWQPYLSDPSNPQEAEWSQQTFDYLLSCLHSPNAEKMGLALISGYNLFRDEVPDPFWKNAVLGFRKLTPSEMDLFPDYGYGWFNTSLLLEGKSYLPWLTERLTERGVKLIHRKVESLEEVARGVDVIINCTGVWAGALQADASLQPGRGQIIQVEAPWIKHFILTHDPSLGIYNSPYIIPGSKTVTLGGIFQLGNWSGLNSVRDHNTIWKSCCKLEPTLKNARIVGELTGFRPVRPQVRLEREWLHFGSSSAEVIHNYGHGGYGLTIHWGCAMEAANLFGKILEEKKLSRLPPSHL

[4] = Apparent permeability across apical to basolateral membrane in MDCK-MDR1 cells by LC-MS/MS analysis; conditions: dog
[5] = Efflux ratio of apparent permeability across basolateral to apical side over apical to basolateral side in MDCK-MDR1 cells; conditions: dog
[6] = Unbound drug concentration in C57Bl/6 mouse brain at 2 mg/kg, po or 0.5 mg/kg,iv by LC-MS-MS analysis; format: ADME, organism-based; conditions: mouse, in vivo, po, 2 mg/kg, BLD = below limit of detection
[7] = Volume of distribution at steady state in C57/BL6 mouse at 2 mg/kg, po or 0.5 mg/kg,iv by LC-MS-MS analysis; format: ADME, organism-based; conditions: in vivo
[8] = Dose normalized AUC in C57/BL6 mouse at 2 mg/kg, po by LC-MS-MS analysis; format: ADME, organism-based; conditions: in vivo
[9] = Oral bioavailability in C57/BL6 mouse at 2 mg/kg by LC-MS-MS analysis; format: ADME, organism-based; conditions: in vivo
[10] = Brain to plasma permeability coefficient, Kp in C57Bl/6 mouse 2 mg/kg, po or 0.5 mg/kg,iv by LC-MS-MS analysis; format: ADME, organism-based; conditions: mouse, brain, po, 2 mg/kg, BLD = below limit of detection
[11] = Unbound drug concentration in C57Bl/6 mouse plasma at 2 mg/kg, po or 0.5 mg/kg,iv by LC-MS-MS analysis; format: ADME, organism-based; conditions: mouse, in vivo, po, 2 mg/kg, BLD = below limit of detection
[12] = Unbound brain-to-plasma concentration ratio in C57Bl/6 mouse at 2 mg/kg, po or 0.5 mg/kg,iv by LC-MS-MS analysis; format: ADME, organism-based; conditions: mouse, brain, po, 2 mg/kg, BLD = below limit of detection

T1 sequence (P14920 whole entry): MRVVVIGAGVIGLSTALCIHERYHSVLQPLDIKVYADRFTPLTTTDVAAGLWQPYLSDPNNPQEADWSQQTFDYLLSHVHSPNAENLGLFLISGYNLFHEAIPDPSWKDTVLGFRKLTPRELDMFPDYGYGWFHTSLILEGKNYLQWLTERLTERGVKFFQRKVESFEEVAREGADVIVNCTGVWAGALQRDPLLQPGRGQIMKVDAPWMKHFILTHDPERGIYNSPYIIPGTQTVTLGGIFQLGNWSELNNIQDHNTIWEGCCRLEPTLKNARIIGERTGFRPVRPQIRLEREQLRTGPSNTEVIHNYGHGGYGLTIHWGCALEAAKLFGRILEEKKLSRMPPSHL

Row | SMILES | IC50 (D-amino-acid oxidase [1]) [µM] | EC50 (D-amino-acid oxidase [2]) [µM] | EC50 (D-amino-acid oxidase [3]) [µM] | also measured
1 | O=c1[nH]cc([C@@H]2COc3cc(Cl)ccc3S2)[nH]c1=O | 0.021 | 0.14 | 0.22 | 
2 | N#Cc1[nH]c(=O)c(=O)[nH]c1CCc1ccc(C(F)(F)F)cc1 | 0.25 | 0.54 | 0.34 | 
3 | COc1ccc(CCc2c[nH]c(=O)c(=O)[nH]2)cc1 | 0.32 |  |  | 
4 | O=c1[nH]cc(CCc2ccc(OC(F)F)nc2)[nH]c1=O | 0.67 | 8.2 |  | 
5 | O=c1[nH]cc(C2COc3cc(C(F)(F)F)ccc3S2)[nH]c1=O (stereo not drawn) | 0.025 | 0.29 | 0.43 | 
6 | C[C@@]1(c2c[nH]c(=O)c(=O)[nH]2)COc2cc(Cl)ccc2S1 |  |  | 0.1 | 
7 | O=c1[nH]cc(CSc2ccc(S(F)(F)(F)(F)F)cc2)[nH]c1=O | 0.08 | 0.71 | 0.79 | 
8 | O=c1[nH]cc([C@@H]2COc3cc(C(F)F)ccc3S2)[nH]c1=O |  |  | 0.29 | 
9 | CC1(c2c[nH]c(=O)c(=O)[nH]2)COc2ccccc2S1 (racemic) |  |  | 0.25 | 
10 | O=c1[nH]cc(CCc2ccccc2Cl)[nH]c1=O | 6.2 |  |  | 
11 | CS(=O)(=O)c1ccc(SCc2c[nH]c(=O)c(=O)[nH]2)cc1 |  |  | 2.3 | 
12 | O=c1[nH]cc(CCc2ccccc2)[nH]c1=O | 0.34 |  |  | Papp A→B [4]: 40 nm/s; efflux ratio [5]: 0.4
13 | O=c1[nH]nc(Cc2ccc(Cl)cc2)cc1O |  |  | 0.0042 | 
14 | O=c1[nH]c(=O)n(O)cc1CCc1ccc(Cl)cc1 |  |  |  | Fu [6]: Bld; Papp A→B [4]: 240 nm/s; Vdss [7]: 1.9 L/kg; AUC/dose [8]: 13.6 ng·h/mL; bioavailability [9]: 9%; Kp [10]: Bld; Fu [11]: Bld; K(p,uu,brain) [12]: Bld
15 | N#Cc1ccc(SCc2c[nH]c(=O)c(=O)[nH]2)cc1Cl |  |  | 0.56 | 
16 | O=c1[nH]cc(SCc2ccc(C(F)(F)F)cc2)[nH]c1=O |  |  | 0.24 | 
17 | C[C@@]1(c2c[nH]c(=O)c(=O)[nH]2)COc2cc(C#N)ccc2S1 | 0.02 | 0.24 | 0.12 | 
18 | O=c1[nH]c(Cl)c(CCc2ccc(C(F)(F)F)cc2)[nH]c1=O | 1.5 | 0.5 |  | 
19 | O=c1[nH]cc(CCc2ccc3ncccc3c2)[nH]c1=O | 0.58 | 8.4 |  | 
20 | Cc1[nH]c(=O)c(=O)[nH]c1CCc1ccc(C(F)(F)F)cc1 | 3.9 |  |  | Papp A→B [4]: 48 nm/s; efflux ratio [5]: 2.4
21 | Cc1n[nH]c2cc(CCc3c[nH]c(=O)c(=O)[nH]3)ccc12 | 0.64 |  | 4.3 | 
22 | O=c1[nH]c(=O)n(O)cc1CCc1ccccc1 |  |  |  | Papp A→B [4]: 150 nm/s
23 | C[C@@]1(c2c[nH]c(=O)c(=O)[nH]2)COc2cc(S(C)(=O)=O)ccc2S1 | 0.051 | 0.39 | 1.5 | 
24 | O=c1[nH]cc(C2COc3ccccc3S2)[nH]c1=O (racemic) | 0.406 | 1.76 | 0.72 | 
25 | C[C@@]1(c2c[nH]c(=O)c(=O)[nH]2)COc2cc(C(F)(F)F)ccc2S1 |  |  | 0.26 | 
26 | O=c1[nH]cc(CCc2cc(Cl)cc(Cl)c2)[nH]c1=O | 2.5 |  |  | 
27 | CS(=O)(=O)c1ccc2c(c1)OC[C@@H](c1c[nH]c(=O)c(=O)[nH]1)S2 | 0.025 | 0.27 | 1.2 | 

Continued, in another order:

Row | IC50 (D-amino-acid oxidase [1]) [µM] | EC50 (D-amino-acid oxidase [2]) [µM] | EC50 (D-amino-acid oxidase [3]) [µM] | SMILES | also measured
28 |  |  | 0.68 | N#Cc1ccc(CSc2c[nH]c(=O)c(=O)[nH]2)cc1F | 
29 | 3.3 |  |  | O=c1[nH]cc(Cc2ccc(Cl)cc2)[nH]c1=O | 
30 | 0.094 | 0.56 | 0.54 | O=c1[nH]cc([C@@H]2COc3cc(F)ccc3S2)[nH]c1=O | 
31 | 0.32 |  |  | O=c1[nH]cc(CCc2ccc(Cl)cc2)[nH]c1=O | 
32 | 0.046 | 0.44 | 0.97 | N#Cc1ccc(SCc2c[nH]c(=O)c(=O)[nH]2)cc1F | 
33 | 0.13 | 0.68 | 0.39 | O=c1[nH]cc(CSc2ccc(Cl)cc2)[nH]c1=O | 
34 |  |  | 0.5 | O=c1[nH]cc(SCc2ccc(S(F)(F)(F)(F)F)cc2)[nH]c1=O | 
35 | 0.15 | 0.4 | 0.51 | O=c1[nH]cc(SCc2ccc(Cl)cc2)[nH]c1=O | 
36 | 0.09 | 0.44 | 0.54 | CS(=O)(=O)c1ccc(CSc2c[nH]c(=O)c(=O)[nH]2)cc1 | 
37 | 0.44 | 3.8 |  | N#Cc1cccc(CSc2c[nH]c(=O)c(=O)[nH]2)c1 | 
38 | 5.8 | 1.8 | 1.5 | N#Cc1ccc(CCc2c[nH]c(=O)c(=O)[nH]2)cc1 | Papp A→B [4]: 30 nm/s; efflux ratio [5]: 0.6
39 | 0.043 | 0.25 | 0.31 | N#Cc1ccc(CSc2c[nH]c(=O)c(=O)[nH]2)cc1 | 
40 | 0.18 | 1.9 |  | N#Cc1ccc(CCc2c[nH]c(=O)c(=O)[nH]2)cc1F | Papp A→B [4]: 33 nm/s; efflux ratio [5]: 0.5
41 | 0.32 | 2.9 | 1.8 | O=c1[nH]cc(CCc2ccc(-c3cc(O)n[nH]3)c(F)c2)[nH]c1=O | Papp A→B [4]: 210 nm/s; efflux ratio [5]: 0.1
42 | 0.25 | 1.1 | 0.59 | O=c1[nH]cc(SCc2ccc(C(F)(F)F)nc2)[nH]c1=O | Papp A→B [4]: 24 nm/s; efflux ratio [5]: 0.4
43 | 0.02 | 0.63 | 0.78 | N#Cc1ccc2c(c1)OC[C@@H](c1c[nH]c(=O)c(=O)[nH]1)S2 | Papp A→B [4]: 31 nm/s; efflux ratio [5]: 3.1
44 | 0.3 | 0.81 |  | O=c1[nH]cc(SCc2ccc(F)c(F)c2)[nH]c1=O | 
45 | 0.087 | 1.1 | 1.4 | O=c1[nH]cc(CSc2cnc3cc(Cl)ccc3c2)[nH]c1=O | 
46 | 0.19 | 3.5 |  | O=c1[nH]cc(CCc2cccc(Cl)c2)[nH]c1=O | Papp A→B [4]: 68 nm/s; efflux ratio [5]: 0.9
47 | 0.07 | 0.45 | 0.59 | O=c1[nH]cc(SCc2ccc(C(F)F)cc2)[nH]c1=O | 

Reference: ChEMBL document CHEMBL5154896, “Discovery of a Novel Class of d-Amino Acid Oxidase Inhibitors Using the Schrödinger Computational Platform” (J Med Chem, 2022)
